Measured values taken from patent publication US20230219978A1, “COMPOUND HAVING MACROCYCLIC STRUCTURE AND USE THEREOF” (SCINNOHUB PHARMACEUTICAL CO., LTD, priority 2020, published 2023).

Columns and labels:
Assay type in all cases: biochemical
RET G810R = molecular target: T1, RET G810R (Homo sapiens, UniProt P07949, G810R); assay: In vitro kinase activity assay (mobility shift assay), RET G810R; details: ATP 201 μM, reaction time 4 h
T1 construct: purchased Proqinase 1724-0000-1
In short: (§1)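 IC50 values come from log-concentration fits of percent inhibition, with compound tested from 1000 nM down in 3-fold steps. Kinase activity was followed as substrate conversion after a 30-240 min room-temperature reaction initiated with ATP.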

BTK = molecular target: T2, BTK (Homo sapiens, UniProt Q06187); assay: In vitro kinase activity assay (mobility shift assay), BTK; details: ATP 71 μM, reaction time 30 min
T2 construct: purchased Carna 08-180
T2 sequence (Q06187 whole entry): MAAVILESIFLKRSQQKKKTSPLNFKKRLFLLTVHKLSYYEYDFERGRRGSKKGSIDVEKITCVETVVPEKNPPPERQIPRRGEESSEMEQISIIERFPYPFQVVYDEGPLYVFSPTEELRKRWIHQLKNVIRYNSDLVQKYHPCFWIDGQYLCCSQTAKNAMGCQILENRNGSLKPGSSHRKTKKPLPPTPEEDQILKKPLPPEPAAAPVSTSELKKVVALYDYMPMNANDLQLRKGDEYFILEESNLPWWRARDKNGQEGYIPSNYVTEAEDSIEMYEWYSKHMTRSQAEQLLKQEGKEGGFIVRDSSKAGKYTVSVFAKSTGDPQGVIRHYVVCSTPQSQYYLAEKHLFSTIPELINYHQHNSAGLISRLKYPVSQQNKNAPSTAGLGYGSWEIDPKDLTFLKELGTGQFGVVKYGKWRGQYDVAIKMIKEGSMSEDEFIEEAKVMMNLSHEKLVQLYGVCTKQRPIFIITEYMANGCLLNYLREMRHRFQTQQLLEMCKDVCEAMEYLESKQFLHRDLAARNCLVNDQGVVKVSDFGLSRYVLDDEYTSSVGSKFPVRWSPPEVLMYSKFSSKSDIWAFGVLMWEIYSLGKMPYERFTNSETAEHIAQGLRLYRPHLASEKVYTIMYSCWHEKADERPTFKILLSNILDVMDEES
In short: as §1

BTK C481S = molecular target: T3, BTK C481S (Homo sapiens, UniProt Q06187, C481S); assay: In vitro kinase activity assay (mobility shift assay), BTK C481S; details: ATP 90 μM, reaction time 30 min
T3 construct: purchased Carna 08-547
T3 sequence (Q06187 whole entry C481S): as the sequence (Q06187 whole entry) above, with C481S counted along it
In short: as §1

TRKa = molecular target: T4, TRKa (Homo sapiens, UniProt P04629); assay: In vitro kinase activity assay (mobility shift assay), TRKa; details: ATP 47.8 μM, reaction time 30 min
T4 construct: purchased Carna 08-186
T4 sequence (P04629 33-796): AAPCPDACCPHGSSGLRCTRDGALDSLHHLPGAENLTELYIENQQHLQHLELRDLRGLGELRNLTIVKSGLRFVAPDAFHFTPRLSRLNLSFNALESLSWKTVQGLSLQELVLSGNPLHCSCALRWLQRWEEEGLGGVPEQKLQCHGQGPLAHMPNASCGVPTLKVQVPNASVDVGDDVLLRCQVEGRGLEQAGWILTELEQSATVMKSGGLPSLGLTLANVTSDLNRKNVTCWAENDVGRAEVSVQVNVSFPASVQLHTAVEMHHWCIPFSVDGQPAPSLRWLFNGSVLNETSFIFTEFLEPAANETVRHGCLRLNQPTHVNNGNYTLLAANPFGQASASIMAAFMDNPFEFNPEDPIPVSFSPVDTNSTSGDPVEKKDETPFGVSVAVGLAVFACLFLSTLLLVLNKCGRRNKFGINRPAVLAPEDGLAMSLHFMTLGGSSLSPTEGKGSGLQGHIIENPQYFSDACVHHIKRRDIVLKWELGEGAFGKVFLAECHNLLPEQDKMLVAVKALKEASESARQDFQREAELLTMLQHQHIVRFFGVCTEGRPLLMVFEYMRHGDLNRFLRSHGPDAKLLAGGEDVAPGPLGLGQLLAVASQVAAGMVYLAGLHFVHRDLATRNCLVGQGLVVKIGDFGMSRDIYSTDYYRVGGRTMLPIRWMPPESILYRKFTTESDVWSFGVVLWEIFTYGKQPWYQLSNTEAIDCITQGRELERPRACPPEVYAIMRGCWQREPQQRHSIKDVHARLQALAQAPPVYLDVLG
In short: as §1

SRC = molecular target: T5, SRC (Homo sapiens, UniProt P12931); assay: In vitro kinase activity assay (mobility shift assay), SRC; details: ATP 19 μM, reaction time 30 min
T5 construct: purchased Carna 08-173
T5 sequence (P12931 whole entry): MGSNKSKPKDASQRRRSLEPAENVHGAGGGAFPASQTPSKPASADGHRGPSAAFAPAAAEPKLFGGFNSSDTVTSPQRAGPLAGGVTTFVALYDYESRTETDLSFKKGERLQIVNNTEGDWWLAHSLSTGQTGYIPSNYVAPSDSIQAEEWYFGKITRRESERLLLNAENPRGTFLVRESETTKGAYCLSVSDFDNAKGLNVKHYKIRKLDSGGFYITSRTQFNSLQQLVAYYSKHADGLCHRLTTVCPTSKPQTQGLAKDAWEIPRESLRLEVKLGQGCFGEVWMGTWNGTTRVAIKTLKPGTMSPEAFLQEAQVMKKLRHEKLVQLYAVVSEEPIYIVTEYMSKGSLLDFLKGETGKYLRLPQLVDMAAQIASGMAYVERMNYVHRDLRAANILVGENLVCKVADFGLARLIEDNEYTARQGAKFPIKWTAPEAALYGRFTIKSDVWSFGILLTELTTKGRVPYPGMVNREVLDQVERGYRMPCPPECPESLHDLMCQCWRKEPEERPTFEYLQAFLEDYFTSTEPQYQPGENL
Procedure: The IC50 (half inhibitory concentration) values of the compounds were used as an indicator to evaluate the inhibitory effect of the compound on RET wild-type, RET mutant, TRKa, SRC, BTK and/or mutated BTK kinase.
Using the method of Mobility shift assay, the compounds were tested for inhibitory activity against the following kinases: RET wild type, RET mutant, TRKa, SRC, BTK and/or mutated BTK. The initial concentration of the test compound was 1000 nM, 3-fold dilution, 10 concentrations, detected in a well for each concentration.
20 mM hydroxyethylpiperazineethanesulfonic acid (Hepes) (pH 7.5) buffer, 10 mM MgCl2, 1 mM ethylene glycol bis(aminoethyl ether)tetraacetic acid (EGTA), 0.02% polyoxyethylene lauryl ether (Brij35), 0.02 mg/ml […] (BSA), 0.1 mM Na3VO4, 2 mM dithiothreitol (DTT), 1% DMSO.
The test compounds were dissolved in 100% dimethyl sulfoxide (DMSO) system, and prepared as 10 mM for use, and stored in a nitrogen cabinet away from light.
• (1) Preparing 1× kinase reaction buffer. • (2) Preparation of compound concentration gradient: the initial concentration of the compounds was 1000 nM, which was diluted as 100-fold final concentration of solution in 100% dimethyl sulfoxide (DMSO) in a 384-well plate. The compound was accurately 3-fold diluted with the kinase buffer solution, 10 concentrations in total, and the final concentration was 0.0508 nM. The 100-fold final concentration of solution in 100% dimethyl sulfoxide (DMSO) was obtained by dilution in 384 source plate. The liquid separator Echo 550 was used to transfer 250 nl of 100-fold final concentration of compound to the target 384 well plate. 250 nl of DMSO was added to the positive and negative control wells. • (3) 2.5-fold final concentration of kinase solution was prepared by the 1× kinase buffer. • (4) 10 4, of 2.5-fold final concentration of kinase solution was added to the compound well and the positive control well, respectively; 10 4, of 1× kinase buffer was added to the negative control well. • (5) After centrifuging at 1000 rpm for 30 second, the reaction plate was shaken and mixed, followed by incubation at room temperature for 10 min. • (6) a mixed solution of 25/15-fold final concentration of adenosine triphosphate (ATP) and kinase substrate was prepared by 1× kinase buffer. • (7) The mixed solution (15 μL) of 25/15-fold final concentration of adenosine triphosphate (ATP) and substrate was added to initiate the reaction. • (8) 384-well plate was centrifuged at 1000 rpm for 30 second, shaken and mixed well, and then incubated at room temperature for 30-240 min. • (9) After stopping the kinase reaction, the plate was centrifugated at 1000 rpm for 30 second, shaken and mixed well. • (10)The conversion rate was read with Caliper EZ Reader.
wherein Conversion%_sample is the conversion rate reading of the sample; Conversion%_min: the mean value of negative control wells, representing the conversion rate reading of wells without enzymes; Conversion%_max: the mean value of positive control wells, representing the conversion rate reading of wells without compound inhibition.
The log value of concentration was taken as the X axis, and the percentage inhibition rate was taken as the Y axis. Graphpad 6.0 analysis software was used to fit the dose-response curve, so as to obtain the IC50 value of each compound on the enzyme activity

RET wt = molecular target: T6, RET wt (Homo sapiens, UniProt P07949); assay: In vitro kinase activity assay (mobility shift assay), RET wild type; details: ATP 16 μM, reaction time 60 min
T6 construct: purchased Carna 08-159
T6 sequence (P07949 29-1114): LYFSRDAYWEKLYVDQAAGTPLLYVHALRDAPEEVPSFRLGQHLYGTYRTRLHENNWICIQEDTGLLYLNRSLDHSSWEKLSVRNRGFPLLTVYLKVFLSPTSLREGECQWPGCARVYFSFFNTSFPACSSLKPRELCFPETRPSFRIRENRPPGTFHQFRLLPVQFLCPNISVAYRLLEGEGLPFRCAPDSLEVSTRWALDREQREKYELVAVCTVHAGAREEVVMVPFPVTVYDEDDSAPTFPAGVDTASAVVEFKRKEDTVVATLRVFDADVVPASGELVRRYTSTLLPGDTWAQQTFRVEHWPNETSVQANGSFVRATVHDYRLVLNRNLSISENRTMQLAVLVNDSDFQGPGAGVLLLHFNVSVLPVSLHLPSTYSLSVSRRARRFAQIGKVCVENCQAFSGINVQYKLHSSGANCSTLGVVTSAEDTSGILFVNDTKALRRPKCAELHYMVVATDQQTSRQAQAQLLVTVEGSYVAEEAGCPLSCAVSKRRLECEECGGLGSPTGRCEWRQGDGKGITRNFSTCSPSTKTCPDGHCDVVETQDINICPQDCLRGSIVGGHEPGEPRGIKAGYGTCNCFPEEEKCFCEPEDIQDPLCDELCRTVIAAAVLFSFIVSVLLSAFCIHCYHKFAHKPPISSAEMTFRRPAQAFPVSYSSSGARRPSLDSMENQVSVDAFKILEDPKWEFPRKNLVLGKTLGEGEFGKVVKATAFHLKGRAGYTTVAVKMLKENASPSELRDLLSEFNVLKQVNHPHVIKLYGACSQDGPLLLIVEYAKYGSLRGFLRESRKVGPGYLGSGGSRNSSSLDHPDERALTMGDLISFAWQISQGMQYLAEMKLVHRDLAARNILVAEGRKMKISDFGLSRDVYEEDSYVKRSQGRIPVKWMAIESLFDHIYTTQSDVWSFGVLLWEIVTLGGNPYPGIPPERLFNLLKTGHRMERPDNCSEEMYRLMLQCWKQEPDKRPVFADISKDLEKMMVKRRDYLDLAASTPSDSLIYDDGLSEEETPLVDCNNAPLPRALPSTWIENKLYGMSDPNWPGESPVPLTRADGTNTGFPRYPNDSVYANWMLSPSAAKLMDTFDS
In short: as §1

RET V804M = molecular target: T7, RET V804M (Homo sapiens, UniProt P07949, V804M); assay: In vitro kinase activity assay (mobility shift assay), RET V804M; details: ATP 5.4 μM, reaction time 60 min
T7 construct: purchased signalchem R02-12GG
T7 sequence (P07949 29-1114 V804M): as the sequence (P07949 29-1114) above, with V776M counted along it
In short: as §1

T1 sequence (P07949 29-1114 G810R): as the sequence (P07949 29-1114) above, with G782R counted along it

IC50 (RET G810R): 0.0421 µM
IC50 (BTK): 0.0335 µM
IC50 (BTK C481S): 0.0313 µM
IC50 (TRKa): > 10 µM
IC50 (SRC): 0.0108 µM
IC50 (RET wt): 0.011 µM
IC50 (RET V804M): > 10 µM
SMILES: C[C@H]1CNC(=O)c2cnn3cc(-c4ccccc4)c(nc23)NCc2cc(F)cnc2O1 [Example 1, (S, 1^3E, 1^4E)-4^5-fluoro-6-methyl-1^6-phenyl-5-oxa-2,8-diaza-1(5,3)-pyrazolo[1,5-a]pyrimidina-4(3,2)-pyridinacyclononaphan-9-one]
